ChEMBL document CHEMBL3885881, “DrugMatrix”

Species on record: Rattus norvegicus
Experiment: DrugMatrix - Regimen: Daily Repeat
Format: toxicity, organism-based, Sprague-Dawley
Parameters: regimen Daily Repeat, gender Male, age 6-8 weeks
Details: in vivo, po, route oral GAVAGE, vehicle .5 % CMC; for ABSOLUTE BASOPHIL / ABSOLUTE EOSINOPHIL / ABSOLUTE LYMPHOCYTE / ABSOLUTE MONOCYTE / ABSOLUTE SEGMENTED NEUTROPHIL / BASOPHIL / EOSINOPHIL / ERYTHROCYTE COUNT / HEMATOCRIT / HEMOGLOBIN / LEUKOCYTE COUNT / LYMPHOCYTE / MEAN CORPUSCULAR HEMOGLOBIN / MEAN CORPUSCULAR HEMOGLOBIN CONCENTRATION / MEAN CORPUSCULAR VOLUME / MONOCYTE / NEUTROPHIL / NUCLEATED RED BLOOD CELLS / PLATELET COUNT: tissue Blood; for ALANINE AMINOTRANSFERASE / ALBUMIN / ALKALINE PHOSPHATASE / ASPARTATE AMINOTRANSFERASE / BLOOD UREA NITROGEN / CARBON DIOXIDE / CHLORIDE / CHOLESTEROL / CREATINE PHOSPHOKINASE / CREATININE / GLUCOSE / LACTATE DEHYDROGENASE / LIPASE / PHOSPHORUS / POTASSIUM / SODIUM / TOTAL BILIRUBIN / TOTAL PROTEIN / URIC ACID: tissue Plasma
[1] = 50 mg/kg, 120 h, dose level Low, time 5 day
[2] = 1500 mg/kg, 72 h, dose level High, time 3 day
[3] = 1500 mg/kg, 120 h, dose level High, time 5 day

SMILES: CNC(=C[N+](=O)[O-])NCCSCc1ccc(CN(C)C)o1 [RANITIDINE]
- ABSOLUTE BASOPHIL [1]: 0 CELLS/uL
- ABSOLUTE EOSINOPHIL [1]: 64.67 CELLS/uL
- ABSOLUTE LYMPHOCYTE [1]: 14230.33 CELLS/uL
- ABSOLUTE MONOCYTE [1]: 0 CELLS/uL
- ABSOLUTE SEGMENTED NEUTROPHIL [1]: 1138.33 CELLS/uL
- BASOPHIL [1]: 0%
- EOSINOPHIL [1]: 0.33%
- ERYTHROCYTE COUNT [1]: 5.36 x10E6/uL
- HEMATOCRIT [1]: 34.53%
- HEMOGLOBIN [1]: 13.67 G/DL
- LEUKOCYTE COUNT [1]: 15.43 x10E3/uL
- LYMPHOCYTE [1]: 92.67%
- MEAN CORPUSCULAR HEMOGLOBIN [1]: 25.53 pg
- MEAN CORPUSCULAR HEMOGLOBIN CONCENTRATION [1]: 39.6 G/DL
- MEAN CORPUSCULAR VOLUME [1]: 64.47 fL
- MONOCYTE [1]: 0%
- NEUTROPHIL [1]: 7%
- NUCLEATED RED BLOOD CELLS [1]: 0 /100WBC
- PLATELET COUNT [1]: 1360.67 x10E3/uL
- ALANINE AMINOTRANSFERASE [1]: 42 u/L
- ALBUMIN [1]: 4.17 G/DL
- ALKALINE PHOSPHATASE [1]: 395 u/L
- ASPARTATE AMINOTRANSFERASE [1]: 70.33 u/L
- BLOOD UREA NITROGEN [1]: 17 mg/dL
- CARBON DIOXIDE [1]: 28 mmol/L
- CHLORIDE [1]: 102 MEQ/L
- CHOLESTEROL [1]: 50.33 mg/dL
- CREATINE PHOSPHOKINASE [1]: 245.67 u/L
- CREATININE [1]: 0.19 mg/dL
- GLUCOSE [1]: 148 mg/dL
- LACTATE DEHYDROGENASE [1]: 98 u/L
- LIPASE [1]: 8.67 u/L
- PHOSPHORUS [1]: 12.1 mg/dL
- POTASSIUM [1]: 6.46 MEQ/L
- SODIUM [1]: 145.6 MEQ/L
- TOTAL BILIRUBIN [1]: 0.2 mg/dL
- TOTAL PROTEIN [1]: 6 G/DL
- URIC ACID [1]: 1.33 mg/dL
- ABSOLUTE BASOPHIL [2]: 0 CELLS/uL
- ABSOLUTE EOSINOPHIL [2]: 49.67 CELLS/uL
- ABSOLUTE LYMPHOCYTE [2]: 15225.67 CELLS/uL
- ABSOLUTE MONOCYTE [2]: 162.67 CELLS/uL
- ABSOLUTE SEGMENTED NEUTROPHIL [2]: 1162 CELLS/uL
- BASOPHIL [2]: 0%
- EOSINOPHIL [2]: 0.33%
- ERYTHROCYTE COUNT [2]: 5.61 x10E6/uL
- HEMATOCRIT [2]: 35.4%
- HEMOGLOBIN [2]: 14 G/DL
- LEUKOCYTE COUNT [2]: 16.6 x10E3/uL
- LYMPHOCYTE [2]: 91.67%
- MEAN CORPUSCULAR HEMOGLOBIN [2]: 24.97 pg
- MEAN CORPUSCULAR HEMOGLOBIN CONCENTRATION [2]: 39.57 G/DL
- MEAN CORPUSCULAR VOLUME [2]: 63.03 fL
- MONOCYTE [2]: 1%
- NEUTROPHIL [2]: 7%
- NUCLEATED RED BLOOD CELLS [2]: 0.33 /100WBC
- PLATELET COUNT [2]: 1234.33 x10E3/uL
- ALANINE AMINOTRANSFERASE [2]: 53 u/L
- ALBUMIN [2]: 4.17 G/DL
- ALKALINE PHOSPHATASE [2]: 349.67 u/L
- ASPARTATE AMINOTRANSFERASE [2]: 86.67 u/L
- BLOOD UREA NITROGEN [2]: 14.67 mg/dL
- CARBON DIOXIDE [2]: 31 mmol/L
- CHLORIDE [2]: 101.33 MEQ/L
- CHOLESTEROL [2]: 68 mg/dL
- CREATINE PHOSPHOKINASE [2]: 268.67 u/L
- CREATININE [2]: 0.18 mg/dL
- GLUCOSE [2]: 146 mg/dL
- LACTATE DEHYDROGENASE [2]: 319.67 u/L
- LIPASE [2]: 9.33 u/L
- PHOSPHORUS [2]: 12.6 mg/dL
- POTASSIUM [2]: 7.13 MEQ/L
- SODIUM [2]: 145.5 MEQ/L
- TOTAL BILIRUBIN [2]: 0.17 mg/dL
- TOTAL PROTEIN [2]: 5.6 G/DL
- URIC ACID [2]: 1.37 mg/dL
- ABSOLUTE BASOPHIL [3]: 0 CELLS/uL
- ABSOLUTE EOSINOPHIL [3]: 61.33 CELLS/uL
- ABSOLUTE LYMPHOCYTE [3]: 16689.33 CELLS/uL
- ABSOLUTE MONOCYTE [3]: 42 CELLS/uL
- ABSOLUTE SEGMENTED NEUTROPHIL [3]: 1274 CELLS/uL
- BASOPHIL [3]: 0%
- EOSINOPHIL [3]: 0.33%
- ERYTHROCYTE COUNT [3]: 6.18 x10E6/uL
- HEMATOCRIT [3]: 38.9%
- HEMOGLOBIN [3]: 15.3 G/DL
- LEUKOCYTE COUNT [3]: 18.07 x10E3/uL
- LYMPHOCYTE [3]: 92.67%
- MEAN CORPUSCULAR HEMOGLOBIN [3]: 24.8 pg
- MEAN CORPUSCULAR HEMOGLOBIN CONCENTRATION [3]: 39.33 G/DL
- MEAN CORPUSCULAR VOLUME [3]: 63.03 fL
- MONOCYTE [3]: 0.33%
- NEUTROPHIL [3]: 6.67%
- NUCLEATED RED BLOOD CELLS [3]: 0 /100WBC
- PLATELET COUNT [3]: 1282 x10E3/uL
- ALANINE AMINOTRANSFERASE [3]: 57.33 u/L
- ALBUMIN [3]: 4.27 G/DL
- ALKALINE PHOSPHATASE [3]: 392.67 u/L
- ASPARTATE AMINOTRANSFERASE [3]: 93.67 u/L
- BLOOD UREA NITROGEN [3]: 15.67 mg/dL
- CARBON DIOXIDE [3]: 21.33 mmol/L
- CHLORIDE [3]: 100.33 MEQ/L
- CHOLESTEROL [3]: 69.67 mg/dL
- CREATINE PHOSPHOKINASE [3]: 330.33 u/L
- CREATININE [3]: 0.23 mg/dL
- GLUCOSE [3]: 154 mg/dL
- LACTATE DEHYDROGENASE [3]: 426.67 u/L
- LIPASE [3]: 10 u/L
- PHOSPHORUS [3]: 12.5 mg/dL
- POTASSIUM [3]: 6.43 MEQ/L
- SODIUM [3]: 144.53 MEQ/L
- TOTAL BILIRUBIN [3]: 0.23 mg/dL
- TOTAL PROTEIN [3]: 6.27 G/DL
- URIC ACID [3]: 2.73 mg/dL
